According to article PMC9558223, “Staphylococcus aureus is able to generate resistance to novel lipoglycopeptide antibiotic gausemycin A” (Frontiers in Microbiology, 2022):

Key:
[1] = tested on: Staphylococcus aureus 5812R; assay: ID32 Staph strip, resistance (novobiocin); assay type: cell-based; details: colorimetric test
Experimental: (§1) The biochemical properties were assayed using the ID32 Staph strip (BioMerieux, France), which consists of a set of wells containing dried biochemical media for colorimetric tests.

[2] = tested on: Staphylococcus aureus FDA209 P; assay: ID32 Staph strip, resistance (novobiocin); assay type: cell-based; details: colorimetric test
Experimental: as §1

S. aureus FDA209P [3] = assay: Serial passaging in increasing concentrations of antimicrobials; assay type: cell-based, Staphylococcus aureus; details: for The highest concentration of antibiotic allowing growth: Mueller-Hinton II broth (CaCl2 50 mg/L), 37 °C, 24 h
Experimental: Gausemycin A-resistant variant was obtained by serial passaging as described previously (Pollard et al., [2012]). Isolated colonies of S. aureus FDA209P were inoculated into Mueller-Hinton II broth (CaCl2 50 mg/L) containing twofold dilutions of gausemycin A. The cultures were incubated at 37 °C with aeration for 24 h. After incubation, bacterial cells growing at the highest concentration of gausemycin A (below the MIC) were harvested and used for the next passage. The process was repeated for 20 passages. The dynamic of the developing resistance to gausemycin A was evaluated in comparison with daptomycin and ramoplanin. The experiments were performed in two independent series on separate days with three technical replicates each.

S. aureus 5812R [4] = assay: microbe, parasite or virus in culture; assay type: cell-based, Staphylococcus aureus
Experimental: (§2) Minimal inhibitory concentration (MIC) was determined as previously described in Fuchs et al. ([2000]), following the Clinical and Laboratory Standards Institute (CLSI) guidelines for broth microdilution MIC assay. The bacteria were incubated in a 96-well microtiter plate (Eppendorf, Germany) containing 90 μL of inoculum prepared in growth media at 10^6 CFU/ml with 10 μL of twofold dilutions of the antibiotics. The results were evaluated after 24 h of cultivation at 37 °C. The bacterial growth was assessed by scanning the absorbance data at 600 nm obtained by spectrophotometer (Multiscan GO, Thermo Fisher Scientific, US).

S. aureus FDA209P [5] = assay: microbe, parasite or virus in culture; assay type: cell-based, Staphylococcus aureus; details: broth microdilution (CLSI), 10^6 CFU/ml, 24 h, 37 °C, absorbance at 600 nm
Experimental: as §2

S. aureus 5812R [6] = assay: Membrane integrity assay (SYTO 9 / propidium iodide); assay type: cell-based, Staphylococcus aureus; details: 10 mM HEPES, 1.25 mM Ca2+, 10^8 CFU/ml, end-point 10 min
Experimental: (§3) Membrane integrity was assessed using the fluorescent probes SYTO 9 and propidium iodide (PI) (LIVE/DEAD BacLight Bacterial Viability Kit, Molecular Probes, USA). The test strains were grown to the mid-log phase. The obtained cultures were centrifuged at 10,000 rpm for 10 min, the supernatant was discarded and the pellet was dispersed in 10 mM HEPES buffer supplemented with 1.25 mM Ca ^2+ to an optical density of 0.2 (OD 600) that corresponded to 10^8 CFU/ml. Bacterial cells in 50 μl were transferred to a 96-well microtiter plate (Eppendorf, US). SYTO 9 fluorescence kinetics was measured using Fluoroscan Ascent FL plate reader (Thermo Scientific, US) at 485 nm excitation and 535 nm of emission wavelengths as described earlier (Vasilchenko et al., [2020]). The assay was performed twice in three technical replicates.
(§4) Microscopy was performed using a Zeiss Axio Imager A2 fluorescent microscope (Carl Zeiss, Germany) equipped with filter sets useful for simultaneous viewing of SYTO 9 and PI stains.

S. aureus FDA209P [7] = assay: as above; assay type: cell-based, Staphylococcus aureus; details: 10 mM HEPES, 1.25 mM Ca2+, 10^8 CFU/ml, end-point 10 min
Experimental: as §3, §4

S. aureus 5812R [8] = assay: Resistance stability testing (passaging in drug-free medium); assay type: cell-based, Staphylococcus aureus; details: 17 passages in gausemycin A-free Muller-Hinton broth
Experimental: The overnight culture of S. aureus 5812R was sub-cultured in gausemycin A-free Muller-Hinton broth and incubated overnight at 37°C with shaking. The obtained culture was evaluated on susceptibility to gausemycin A in the MIC assay as described previously. Passaging in the drug-free medium was repeated 17 times. The experiments were performed in two independent series on separate days with three technical replicates each.

[9] = tested on: biofilm-embedded staphylococcal cells; details: ref Vasilchenko et al., 2020; cited from earlier work
Description: These lipoglycopeptides were firstly described in 2016 (Lapchinskaya et al., [2016]), and consequently named gausemycins A and B (Tyurin et al., [2021]). Gausemycin A is a macrocyclic peptide containing 14 amino acids, where tyrosine is glycosylated with arabinose, which makes gausemycin A unique among natural peptide antibiotics (Tyurin et al., [2021]). The closest structurally related compounds are depsipeptides (daptomycin, taromycins, and cadazides) and cyclopeptides ( ...

For `CO[C@@H]1[C@@H](OC(N)=O)[C@@H](O)[C@H](Oc2ccc3c(O)c(NC(=O)c4ccc(O)c(CC=C(C)C)c4)c(=O)oc3c2C)OC1(C)C` [novobiocin], the “Resistance (Novobiocin)” value [1] was “Positive” and the “Resistance (Novobiocin)” value [2] was “Positive”.
With Gausemycin A the “The highest concentration of antibiotic allowing growth” value (shortened to “The highest concentration”) (S. aureus FDA209P [3]; passage 1) was 2.5 µg/mL, the “The highest concentration” value (S. aureus FDA209P [3]; passage 2) was 2.5 µg/mL and the “The highest concentration” value (S. aureus FDA209P [3]; passage 3) was 5 µg/mL. The “The highest concentration” value (S. aureus FDA209P [3]; passage 4) was 5 µg/mL, the “The highest concentration” value (S. aureus FDA209P [3]; passage 5) was 5 µg/mL and the “The highest concentration” value (S. aureus FDA209P [3]; passage 6) was 5 µg/mL. For the same compound, the “The highest concentration” value (S. aureus FDA209P [3]; passage 7) was 5 µg/mL, the “The highest concentration” value (S. aureus FDA209P [3]; passage 8) was 10 µg/mL and the “The highest concentration” value (S. aureus FDA209P [3]; passage 9) was 20 µg/mL. For the same compound, the “The highest concentration” value (S. aureus FDA209P [3]; passage 10) was 40 µg/mL, the “The highest concentration” value (S. aureus FDA209P [3]; passage 11) was 40 µg/mL and the “The highest concentration” value (S. aureus FDA209P [3]; passage 12) was 40 µg/mL. For the same compound, the “The highest concentration” value (S. aureus FDA209P [3]; passage 13) was 50 µg/mL, the “The highest concentration” value (S. aureus FDA209P [3]; passage 14) was 100 µg/mL and the “The highest concentration” value (S. aureus FDA209P [3]; passage 15) was 100 µg/mL. For the same compound, the “The highest concentration” value (S. aureus FDA209P [3]; passage 16) was 100 µg/mL, the “The highest concentration” value (S. aureus FDA209P [3]; passage 17) was 150 µg/mL and the “The highest concentration” value (S. aureus FDA209P [3]; passage 18) was 200 µg/mL. For the same compound, the “The highest concentration” value (S. aureus FDA209P [3]; passage 19) was 200 µg/mL, the “The highest concentration” value (S. aureus FDA209P [3]; passage 20) was greater than 200 µg/mL and the “Number of passages within which resistance was formed” value (S. aureus FDA209P [3]; serial passages with sub-inhibitory concentrations) was no more than 20 passages. The MIC (S. aureus 5812R [4]; S. aureus 5812R, broth microdilution (CLSI), 10^6 CFU/ml, 24 h, 37 °C, absorbance at 600 nm) was greater than 200 µg/mL, the “Change of MIC / resistance of S. aureus 5812R compared to parent strain S. aureus FDA209P” value (S. aureus 5812R [4]; ratio of MIC for 5812R and FDA209P) was 80 fold and the MIC (S. aureus FDA209P [5]) was 2.5 µg/mL. For the same compound, the “Quenching of SYTO9 fluorescence” value (S. aureus 5812R [6]) was “not achieved at all taken concentrations”, the “Concentration giving complete quenching of SYTO9 fluorescence” value (S. aureus FDA209P [7]) was 50 µg/mL and the “Stability of resistance (MIC after passaging in drug-free medium)” value (S. aureus 5812R [8]) was “did not change the MIC value”. For the same compound, the “Inhibition of biofilm-embedded staphylococcal cells” value [9] was “able to inhibit”.
